Test results reported in PMC7356367, “Design, Synthesis, and Biological Evaluation of 8-Mercapto-3,7-Dihydro-1H-Purine-2,6-Diones as Potent Inhibitors of SIRT1, SIRT2, SIRT3, and SIRT5” (Molecules, 2020).

Columns and labels:
SIRT1 [1] = details: Figure 1, reported sirtuin inhibitors; cited from earlier work
SIRT2 [2] = details: Figure 1, reported sirtuin inhibitors; cited from earlier work
SH-SY5Y cells = assay: MTT assay for toxicity; format: cell-based; details: 24 hours
Procedure: To evaluate the toxicity of the compounds, we carried out MTT assays on SH-SY5Y
cells incubated with various concentrations of compounds 4 and 15 for 24 hours. We […]

SIRT2 [3] = target: T1, SIRT2 (Homo sapiens, UniProt Q8IXJ6); assay: Fluorescent deacetylation assay, SIRT2
T1 sequence (Q8IXJ6 1-389): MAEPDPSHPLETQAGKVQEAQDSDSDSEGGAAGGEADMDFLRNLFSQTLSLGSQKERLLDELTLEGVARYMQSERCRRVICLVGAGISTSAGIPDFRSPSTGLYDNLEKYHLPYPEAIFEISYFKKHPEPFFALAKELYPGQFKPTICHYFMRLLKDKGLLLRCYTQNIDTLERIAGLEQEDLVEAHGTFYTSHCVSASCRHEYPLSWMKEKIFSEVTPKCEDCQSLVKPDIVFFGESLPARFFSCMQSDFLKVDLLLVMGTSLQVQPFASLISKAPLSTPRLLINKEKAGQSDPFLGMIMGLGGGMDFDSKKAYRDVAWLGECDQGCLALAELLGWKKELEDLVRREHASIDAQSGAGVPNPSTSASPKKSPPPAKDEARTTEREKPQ

SIRT6 = SIRT6 (Homo sapiens, UniProt Q8N6T7); assay: Fluorescent deacetylation assay, SIRT6
Chain of SIRT6 (Q8N6T7 whole entry): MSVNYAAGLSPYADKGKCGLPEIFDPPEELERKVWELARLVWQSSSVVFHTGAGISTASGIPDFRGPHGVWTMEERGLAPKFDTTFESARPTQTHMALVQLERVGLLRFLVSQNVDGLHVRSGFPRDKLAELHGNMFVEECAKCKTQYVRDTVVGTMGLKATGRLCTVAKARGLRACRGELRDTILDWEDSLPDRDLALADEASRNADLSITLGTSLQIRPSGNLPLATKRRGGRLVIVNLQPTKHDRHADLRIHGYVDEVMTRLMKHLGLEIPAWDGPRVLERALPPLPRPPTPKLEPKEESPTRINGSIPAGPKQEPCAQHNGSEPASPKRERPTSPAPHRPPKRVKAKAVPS

SIRT5 = target: T2, SIRT5 (Homo sapiens, UniProt Q9NXA8); assay: Fluorescent deacylation assay (succinyl-peptide), SIRT5
T2 sequence (Q9NXA8 37-310): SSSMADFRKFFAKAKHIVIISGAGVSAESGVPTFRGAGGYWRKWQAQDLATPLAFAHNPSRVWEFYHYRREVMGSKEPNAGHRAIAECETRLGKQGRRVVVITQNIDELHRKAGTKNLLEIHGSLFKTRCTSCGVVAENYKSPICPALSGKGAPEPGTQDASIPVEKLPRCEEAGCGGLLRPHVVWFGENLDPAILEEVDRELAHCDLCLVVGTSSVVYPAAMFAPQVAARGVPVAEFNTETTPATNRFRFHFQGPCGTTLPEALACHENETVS

[4] = Stability in the assay buffer and activity assay by HPLC; details: overall statement
SIRT1 [5] = target: T3, SIRT1 (Homo sapiens, UniProt Q96EB6); assay: Fluorescent deacetylation assay, SIRT1; format: biochemical; details: 0.8 μM SIRT1, 10 μM acetyl-peptide, 1.2 mM NAD+
T3 construct: Human SIRT1 (183-505-(GGGS)2-641-665); His6 with sumo-cleavage site (N); made in house; host or cells: E. coli BL21
T3 sequence (Q96EB6 with tags, fused parts or gaps): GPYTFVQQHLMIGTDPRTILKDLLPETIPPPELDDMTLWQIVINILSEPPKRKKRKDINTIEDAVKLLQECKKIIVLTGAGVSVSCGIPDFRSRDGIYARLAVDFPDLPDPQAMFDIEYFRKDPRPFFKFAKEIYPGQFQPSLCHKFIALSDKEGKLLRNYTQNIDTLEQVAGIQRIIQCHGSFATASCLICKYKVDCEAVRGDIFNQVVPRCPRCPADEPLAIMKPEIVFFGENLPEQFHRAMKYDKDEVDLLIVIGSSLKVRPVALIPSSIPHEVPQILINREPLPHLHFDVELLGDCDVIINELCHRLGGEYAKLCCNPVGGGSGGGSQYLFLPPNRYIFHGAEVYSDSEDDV
Procedure: All compounds were dissolved in 10 mM stock solution in DMSO. […] The fluorescence was measured using a microplate reader (SpectraMax M5, Molecular Devices, San Jose, CA, USA) with excitation at 320 nm and emission at 420 nm. All reactions were done in triplicate.
IC50 were determined for other sirtuins using the same assay as for SIRT3.

SIRT3 = target: T4, SIRT3 (Homo sapiens, UniProt Q9NTG7); assay: Fluorescent deacetylation assay with internally quenched acetyl peptide and trypsin development, SIRT3
T4 sequence (Q9NTG7 118-399): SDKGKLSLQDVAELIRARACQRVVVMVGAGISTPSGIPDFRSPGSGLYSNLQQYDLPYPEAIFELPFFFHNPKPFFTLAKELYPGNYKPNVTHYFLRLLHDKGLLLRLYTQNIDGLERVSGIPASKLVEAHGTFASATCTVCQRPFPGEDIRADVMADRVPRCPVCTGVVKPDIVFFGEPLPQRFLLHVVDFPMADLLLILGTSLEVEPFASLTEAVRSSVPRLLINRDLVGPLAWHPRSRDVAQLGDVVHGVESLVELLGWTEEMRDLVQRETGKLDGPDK
From the text: An internally quenched fluorescent peptide (sequence: Abz-GVLKAcAYNO2GV-NH2; Abz: 2-aminobenzoyl; KAc, acetyl lysine; YNO2, 3-nitro-L-tyrosine) was used as the substrate [24]. After deacetylation by SIRT3, the substrate was hydrolyzed by trypsin to produce a fluorescent Abz-peptide (sequence: Abz-GVLK), which can be quantified by measuring the fluorescence of Abz at 420 nm with the excitation wavelength of 320 nm (Figure 2A).

[6] = Stability of DMSO solution by mass spectrometry; details: nine months, refrigerator 4 °C
From the text: To examine the stability of the compound, we analyzed the solution sample of
Further, we determined the
compound in the assay buffer without SIRT3, and the compound after the
deacetylation catalyzed by SIRT3 by using HPLC.
To address whether SIRT3 might cause any
catalyzed by SIRT3 (Figure S3C and S3E).

SMILES | melting point [°C] | IC50 (SIRT2 [3]) [nM] | IC50 (SIRT6) [nM] | IC50 (SIRT5) [nM] | IC50 (SIRT1 [5]) [µM] | IC50 (SIRT3) [nM] | other results
CC(C(=O)Nc1cccc(/N=C/c2c(O)ccc3ccccc23)c1)c1ccccc1 (stereo not drawn) [salermide] |  |  |  |  |  |  | IC50 (SIRT1 [1]): 76000 nM; IC50 (SIRT2 [2]): 45000 nM
Cc1ccc(C(=O)Nc2ccc(S(=O)(=O)O)c3cc(S(=O)(=O)O)cc(S(=O)(=O)O)c23)cc1NC(=O)c1cccc(NC(=O)Nc2cccc(C(=O)Nc3cc(C(=O)Nc4ccc(S(=O)(=O)O)c5cc(S(=O)(=O)O)cc(S(=O)(=O)O)c45)ccc3C)c2)c1 [suramin] |  |  |  |  |  |  | IC50 (SIRT2 [2]): 1200 nM
CCn1c(=O)n(CCC(=O)Nc2cccc(C(F)(F)F)c2)c(=O)c2[nH]c(SSc3nc4c([nH]3)c(=O)n(CCC(=O)Nc3cccc(C(F)(F)F)c3)c(=O)n4CC)nc21 [Compound 19, 3,3’-(Disulfanediylbis(3-ethyl-2,6-dioxo-2,3,6,7-tetrahydro-1H-purine-8,1-diyl))bis(N-(3-(trifluoromethyl)phenyl)propanamide)] | 174 to 175 | 9440 ± 190 | 452000 ± 9800 | 26100 ± 3150 | 1.87 ± 0.04 | 8520 ± 220 | Fold reduced inhibitory activity compared with 15 (SIRT3) (SIRT3; relative to compound 15): 23 fold
CCn1c(=O)n(CCc2ccc(NC(=O)OC(C)(C)C)cc2)c(=O)c2[nH]c(SSc3nc4c([nH]3)c(=O)n(CCc3ccc(NC(=O)OC(C)(C)C)cc3)c(=O)n4CC)nc21 [Compound 17, di-tert-Butyl(((Disulfanediylbis(3-ethyl-2,6-dioxo-2,3,6,7-tetrahydro-1H-purine-8,1-diyl))bis(ethane-2,1-diyl))bis(4,1-phenylene))dicarbamate] | 168 to 171 | 2190 ± 80 | 128000 ± 4100 | 1000 ± 30 | 0.41 ± 0.04 | 1150 ± 80 | 
CCn1c(=O)n(CC2CCCO2)c(=O)c2[nH]c(SSc3nc4c([nH]3)c(=O)n(CC3CCCO3)c(=O)n4CC)nc21 (stereo not drawn) [Compound 14, 8,8’-Disulfanediylbis(3-ethyl-1-((tetrahydrofuran-2-yl)methyl)-3,7-dihydro-1H-purine-2,6-dione)] | 166 to 168 | 1620 ± 50 | 127000 ± 10200 | 540 ± 20 | 0.15 ± 0.02 | 690 ± 120 | Fold enhanced activity compared to compound 12 (SIRT3) (SIRT3; relative to compound 12): 2.5 fold
CCn1c(=O)n(CC2CCOCC2)c(=O)c2[nH]c(SSc3nc4c([nH]3)c(=O)n(CC3CCOCC3)c(=O)n4CC)nc21 [Compound 13, 8,8’-Disulfanediylbis(3-ethyl-1-((tetrahydro-2H-pyran-4-yl)methyl)-3,7-dihydro-1H-purine-2,6-dione)] | 229 to 231 | 2250 ± 120 | 156000 ± 6500 | 500 ± 10 |  |  | 
CS(=O)(=O)NCCC1CCN(c2ncnc3cc(C(N)=O)sc23)CC1 [ELT-31, reference compound] |  | 120 ± 10 | 462000 ± 14900 | > 500000 |  |  | 

Now from value to compound, other results behind:

melting point [°C] | IC50 (SIRT2 [3]) [nM] | IC50 (SIRT6) [nM] | IC50 (SIRT5) [nM] | IC50 (SIRT1 [5]) [µM] | IC50 (SIRT3) [nM] | SMILES | other results
225 to 227 | 1350 ± 50 | 103000 ± 6300 | 450 ± 10 |  |  | CCn1c(=O)n(CCc2ccccc2)c(=O)c2[nH]c(SSc3nc4c([nH]3)c(=O)n(CCc3ccccc3)c(=O)n4CC)nc21 [Compound 15, 8,8’-Disulfanediylbis(3-ethyl-1-phenethyl-3,7-dihydro-1H-purine-2,6-dione)] | Toxicity (MTT) at 50 μM (SH-SY5Y cells): displayed toxicity; Toxicity (MTT) at concentrations up to 20 μM (SH-SY5Y cells): nontoxic; Stability in the activity assays [4]: stable
240 to 242 | 4860 ± 80 | 297000 ± 11300 | 1510 ± 100 | 0.43 ± 0.03 | 1770 ± 50 | CCn1c(=O)n(CC(C)C)c(=O)c2[nH]c(SSc3nc4c([nH]3)c(=O)n(CC(C)C)c(=O)n4CC)nc21 [Compound 12, 8,8’-Disulfanediylbis(3-ethyl-1-isobutyl-3,7-dihydro-1H-purine-2,6-dione)] | 
216 to 218 | 2030 ± 40 | 111000 ± 2600 | 840 ± 80 | 0.19 ± 0.01 | 460 ± 40 | CCn1c(=O)n(CCc2ccc(F)cc2)c(=O)c2[nH]c(SSc3nc4c([nH]3)c(=O)n(CCc3ccc(F)cc3)c(=O)n4CC)nc21 [Compound 16, 8,8’-Disulfanediylbis(3-ethyl-1-(4-fluorophenethyl)-3,7-dihydro-1H-purine-2,6-dione)] | 
 | 4610 ± 130 | 210000 ± 5900 | 920 ± 40 | 0.49 ± 0.01 | 970 ± 60 | CCn1c(=O)n(CCc2ccc(N)cc2)c(=O)c2[nH]c(SSc3nc4c([nH]3)c(=O)n(CCc3ccc(N)cc3)c(=O)n4CC)nc21 [Compound 20, 8,8’-Disulfanediylbis(1-(4-aminophenethyl)-3-ethyl-3,7-dihydro-1H-purine-2,6-dione)] | 
241 to 243 | 1190 ± 60 | 129000 ± 16100 | 390 ± 30 |  |  | CCCn1c(=O)c2[nH]c(SSc3nc4c([nH]3)c(=O)n(CCC)c(=O)n4CCC)nc2n(CCC)c1=O [Compound 4, 8,8’-Disulfanediylbis(1,3-dipropyl-3,7-dihydro-1H-purine-2,6-dione)] | Toxicity (MTT) at 50 μM (SH-SY5Y cells): displayed toxicity; Toxicity (MTT) at concentrations up to 20 μM (SH-SY5Y cells): nontoxic
 | 1170 ± 40 | 116000 ± 6200 | 420 ± 10 |  |  | CCn1c(=O)c2[nH]c(SSc3nc4c([nH]3)c(=O)n(CC)c(=O)n4CC)nc2n(CC)c1=O [Compound 1, 8,8′-Disulfanediylbis(1,3-diethyl-3,7-dihydro-1H-purine-2,6-dione)] | Stability in DMSO [6]: remains stable; Stability in the activity assays [4]: stable in the activity assays
216 to 219 | 2160 ± 80 | 102000 ± 9100 |  |  |  | CCn1c(=O)n(CCc2ccc(OC)cc2)c(=O)c2[nH]c(SSc3nc4c([nH]3)c(=O)n(CCc3ccc(OC)cc3)c(=O)n4CC)nc21 [Compound 18, 8,8’-Disulfanediylbis(3-ethyl-1-(4-methoxyphenethyl)-3,7-dihydro-1H-purine-2,6-dione)] | 
